Measurements taken from patent US8507724B2 (priority 2008, dated 2013).
Several values for one entry are separate records, joined by “and”; a condition that tells them apart may be missing. Equal entries are not always repeated. Where two headings read alike, the source gives them in different places.

Test: in vivo
Format: in vivo
Conditions: rat
Experimental: […] Whole blood samples were taken from a lateral tail vein for plasma separation at time points 0 min, 30 min, 1 h, 2 h and 4 h after p.o. dosing; and 0 min, 15 min, 30 min, 1 h, and 2 h after i.v. dosing, while the terminal samples at time point 6 h after dosing (p.o and Lv.) were taken by cardiac puncture. All time points were taken from a single rat, and all experiments were carried out in triplicate.
The samples were thawn at room temperature and prepared by protein precipitation with ratio 1:2 of plasma and acetonitrile and were centrifuged 10 minutes at 16 100×g (Eppendorf 5415D, Eppendorf AG, Hamburg, Germany) before injection to UPLCIMSMS system. The standard samples were prepared similarly, after spiking blank plasma samples to 0.5, 2, 5, 10, 20, 50, 200, 500, 1000 and 2000 ng/ml of the analyte compounds.
The pharmacokinetic parameters for study compounds were calculated by WinNonlin Pro (Pharsight Corp, CA) using standard noncompartmental methods. The volume of distribution (Vd) was based on the terminal phase. The elimination phase half-life (t1/2) was calculated by least-squares regression analysis of the terminal linear part of the log concentration-time curve. The area under the plasma concentration-time curve (AUC) was determined by use of the linear trapezoidal rule up to the last measurable concentration and thereafter by extrapolation of the terminal elimination phase to infinity. The area under the plasma concentration-time curve without terminal extrapolation is reported as AUC 0-6 h. The mean residence time (MRT) representing the average amount of time a compound remains in a compartment or system was calculated extrapolating the drug concentration profile to infinity. The maximum plasma concentration (cmax) and the time to cmax (tmax) were derived directly from the plasma concentration data. The tentative oral bioavailability (F) was calculated by dividing the AUC after p.o. administration by the AUC after i.v. administration taking into account the differences in dose, i.e. F=AUC(p.o.)/Dose(p.o.)/AUC(i.v)/[…], and reported as percentages (%).
A Waters Acquity chromatographic system (Waters Corp., Milford, Mass., USA) with autosampler, vacuum degasser and column oven was used. The analytical column used for all compounds was a Waters BEH ShieldRP18, (2.1×50 mm, 1.7 μm, Waters Corp, Milford, Mass., USA) together with an on-line filter. The eluents were 0.1% acetic acid (A, pH 3.2) and acetonitrile (B). A linear gradient elution from 5% B to 35% B in 0-2 minutes, from 35% B to 85% B in 2.0-3.0 min was employed, followed by 1 min isocratic elution with […] and column equilibration. The flow rate was 0.5 ml/min and the column oven temperature was 35° C. LC/MS/MS/data was acquired with a Micromass Quattro Premier triple quadrupole mass spectrometer equipped with a LockSpray electrospray ionization source. A negative ion mode ionisation was used. The multiple reaction monitoring (MRM) mode of detection was used. The mass spectrometer and UPLC system were operated under Micromass MassLynx 4.1 software. Complete LC/MS/MS parameters are presented in Appendix I.
Detection/quantitation limits between 2 ng/ml and 10 ng/ml in plasma were obtained for each compound. Calibration curves for quantification were generated by fitting the ratio of the external standard peak areas as a function of the concentration, excluding the point of origin and using 1/x weighting and linear or quadratic fitting. The ranges up to 2000 ng/ml were fitted for calibration curves. […] The overall precisions 12.0-17.0% were calculated from the standard samples (two injection/concentration), using Snedecor equation S=(Σd^2/2n)^0.5, in which S=precision, d is the difference between duplicates expressed as % of the mean value, and N is the number of standard concentration. The concentrations of each study compound in the samples are shown in the Appendices IV-VI.

[1] = 2 mg/kg i.v., individual animals, 2 mg/kg
[2] = in vivo, iv, 2 mg/kg, 2 mg/kg i.v., individual animals, read-out: t1/2
[3] = in vivo, iv, 2 mg/kg, i.v. 2 mg/kg, mean n=3, read-out: t1/2
[4] = 20 mg/kg p.o., individual animals, 20 mg/kg

**Q.** For `CC(C)c1cc(-c2ccc(Cl)cc2)cc(C(C)C)c1O` [4-(p-Cl—Ph)-propofol, 4-(para-Chlorophenyl)-propofol], which bioavailability (plasma, po, 20 mg/kg p.o. vs 2 mg/kg i.v., read-out: F (%) tentative oral bioavailability) is on record?
**A.** 0%

**Q.** And the tmax (2 mg/kg i.v., individual animals)?
**A.** 0.25 h

**Q.** What about the AUC [1] of the same compound?
**A.** 36.3 µg·min/mL and 40.8 µg·min/mL and 68.8 µg·min/mL

**Q.** And the CL/F [1]?
**A.** 55.1 mL/min/kg and 49.1 mL/min/kg and 29.1 mL/min/kg

**Q.** What about the MRT [1] of the same compound?
**A.** 1.51 h and 0.782 h

**Q.** What about the cmax [1] of the same compound?
**A.** 0.46 µg/mL and 0.78 µg/mL

**Q.** What about the t1/2 [1] of the same compound?
**A.** 1.54 h and 1.78 h

**Q.** What about the “ADC 0-6 h” value (i.v. 2 mg/kg, mean n=3) of the same compound?
**A.** 46.6 µg·min/mL

**Q.** What about the AUC (i.v. 2 mg/kg, mean n=3) of the same compound?
**A.** 48.6 µg·min/mL

**Q.** What about the CL/F (i.v. 2 mg/kg, mean n=3) of the same compound?
**A.** 44.4 mL/min/kg

**Q.** And the “clearance (in words)” value (i.v. dosing, compared to rat liver blood flow)?
**A.** in the range of hepatic blood flow

**Q.** And the half-life [2]?
**A.** 1.52 h

**Q.** What about the half-life [3] of the same compound?
**A.** 1.61 h

**Q.** What about the concentration in plasma (iv (2 mg/kg), 15 min, individual animals, listed as CK2-3, 2 mg/kg) of the same compound?
**A.** 398 ng/mL and 456 ng/mL

**Q.** What about the concentration in plasma (iv (2 mg/kg), 30 min, individual animals, listed as CK2-3, 2 mg/kg) of the same compound?
**A.** 123 ng/mL and 187 ng/mL and 307 ng/mL

**Q.** What about the concentration in plasma (iv (2 mg/kg), 1 h, individual animals, listed as CK2-3, 2 mg/kg) of the same compound?
**A.** 149 ng/mL and 156 ng/mL

**Q.** What about the concentration in plasma (iv (2 mg/kg), 2 h, individual animals, listed as CK2-3, 2 mg/kg) of the same compound?
**A.** 62.4 ng/mL and 74.2 ng/mL

**Q.** What about the concentration in plasma (iv (2 mg/kg), 6 h, individual animals, listed as CK2-3, 2 mg/kg) of the same compound?
**A.** 14.6 ng/mL and 14.9 ng/mL

**Q.** What about the “detection in plasma after oral (p.o.) administration” value (from here on “detection … (p.o.) administration”) of the same compound?
**A.** detected in plasma only after i.v. administration

**Q.** And the “detection … (p.o.) administration” value (listed as CK-2-3)?
**A.** not detected

**Q.** And the half-life (plasma, iv, 2 mg/kg, i.v. administration, read-out: half life (converted))?
**A.** ~1.5 h

**Q.** What about the concentration at 15 min (plasma, iv, 2 mg/kg, iv (2 mg/kg), 15 min, individual animals) of the same compound?
**A.** 784 ng/mL

**Q.** What about the concentration at 1 h (plasma, iv, 2 mg/kg, iv (2 mg/kg), 1 h, individual animals) of the same compound?
**A.** 79.7 ng/mL

**Q.** And the concentration at 2 h (plasma, iv, 2 mg/kg, iv (2 mg/kg), 2 h, individual animals)?
**A.** 63.9 ng/mL

**Q.** And the concentration at 6 h (plasma, iv, 2 mg/kg, iv (2 mg/kg), 6 h, individual animals)?
**A.** 13.1 ng/mL

**Q.** For `CC(C)c1cc(-c2ccc(Cl)c(F)c2)cc(C(C)C)c1O` [p-(3-F,4-Cl—Ph)-propofol, Para-(3-Fluoro,4-chlorophenyl)-propofol], which CL/F [1] is on record?
**A.** 24.9 mL/min/kg and 30.4 mL/min/kg and 32.5 mL/min/kg

**Q.** What about the t1/2 [1] of the same compound?
**A.** 1.53 h and 1.65 h

**Q.** What about the CL/F [4] of the same compound?
**A.** 153 mL/min/kg and 434 mL/min/kg and 105 mL/min/kg

**Q.** And the t1/2 [4]?
**A.** 7.8 h and 18.5 h and 13.1 h

**Q.** And the CL/F (i.v. 2 mg/kg, mean n=3)?
**A.** 29.3 mL/min/kg

**Q.** What about the bioavailability (in vivo) of the same compound?
**A.** ~18%

**Q.** And the “clearance (in words)” value (in vivo, iv)?
**A.** intermediate

**Q.** What about the “half life (in words)” value (in vivo, iv) of the same compound?
**A.** intermediate

**Q.** What about the “ADC 0-6 h” value (in vivo, iv, 2 mg/kg) of the same compound?
**A.** 64.1 µg·min/mL

**Q.** And the tmax (in vivo, iv, 2 mg/kg)?
**A.** 0.25 h

**Q.** What about the half-life [2] of the same compound?
**A.** 1.36 h

**Q.** What about the half-life [3] of the same compound?
**A.** 1.52 h

**Q.** And the concentration at 30 min (in vivo, iv, 2 mg/kg, iv (2 mg/kg), 30 min, individual animals, read-out: concentration in plasma)?
**A.** 444 ng/mL

**Q.** And the concentration at 1 h (in vivo, iv, 2 mg/kg, iv (2 mg/kg), 1 h, individual animals, read-out: concentration in plasma)?
**A.** 316 ng/mL

**Q.** And the concentration at 2 h (in vivo, iv, 2 mg/kg, iv (2 mg/kg), 2 h, individual animals, read-out: concentration in plasma)?
**A.** 90.3 ng/mL

**Q.** What about the concentration at 6 h (in vivo, iv, 2 mg/kg, iv (2 mg/kg), 6 h, individual animals, read-out: concentration in plasma) of the same compound?
**A.** 24.1 ng/mL

**Q.** And the “ADC 0-6 h” value (in vivo, po, 20 mg/kg)?
**A.** 34.6 µg·min/mL

**Q.** What about the CL (in vivo, po, 20 mg/kg) of the same compound?
**A.** 41.1 mL/min/kg

**Q.** And the Tmax (in vivo, po, 20 mg/kg)?
**A.** 0.5 h

**Q.** What about the Vd (in vivo, po, 20 mg/kg) of the same compound?
**A.** 54.4 L/kg

**Q.** What about the bioavailability (in vivo, po, 20 mg/kg) of the same compound?
**A.** 17.8%

**Q.** What about the tmax (in vivo, po, 20 mg/kg) of the same compound?
**A.** 0.5 h

**Q.** And the Vd/F (in vivo, po, 20 mg/kg, p.o. 20 mg/kg, mean n=3)?
**A.** 306 L/kg

**Q.** What about the CL/F (in vivo, po, 20 mg/kg, p.o. 20 mg/kg, mean n=3, read-out: CL/F) of the same compound?
**A.** 231 mL/min/kg

**Q.** What about the half-life (in vivo, po, 20 mg/kg, p.o. 20 mg/kg, mean n=3, read-out: t1/2) of the same compound?
**A.** 13.2 h

**Q.** What about the concentration in plasma (iv (2 mg/kg), 15 min, individual animals, listed as CK2-9, 2 mg/kg) of the same compound?
**A.** 1100 ng/mL and 689 ng/mL and 535 ng/mL

**Q.** What about the concentration in plasma (iv (2 mg/kg), 30 min, individual animals, listed as CK2-9, 2 mg/kg) of the same compound?
**A.** 499 ng/mL and 513 ng/mL

**Q.** And the concentration in plasma (iv (2 mg/kg), 1 h, individual animals, listed as CK2-9, 2 mg/kg)?
**A.** 329 ng/mL and 297 ng/mL

**Q.** And the concentration in plasma (iv (2 mg/kg), 2 h, individual animals, listed as CK2-9, 2 mg/kg)?
**A.** 74.0 ng/mL and 81.3 ng/mL

**Q.** And the concentration in plasma (iv (2 mg/kg), 6 h, individual animals, listed as CK2-9, 2 mg/kg)?
**A.** 44.0 ng/mL and 46.6 ng/mL

**Q.** And the “detection … (p.o.) administration” value?
**A.** observed in plasma

**Q.** And the concentration in plasma (po (20 mg/kg), 30 min, individual animals, listed as CK2-9, 20 mg/kg)?
**A.** 172 ng/mL and 213 ng/mL and 63.0 ng/mL

**Q.** And the concentration in plasma (po (20 mg/kg), 1 h, individual animals, listed as CK2-9, 20 mg/kg)?
**A.** 182 ng/mL and 26.6 ng/mL and 121 ng/mL

**Q.** And the concentration in plasma (po (20 mg/kg), 2 h, individual animals, listed as CK2-9, 20 mg/kg)?
**A.** 134 ng/mL and 26.2 ng/mL and 168 ng/mL

**Q.** And the concentration in plasma (po (20 mg/kg), 4 h, individual animals, listed as CK2-9, 20 mg/kg)?
**A.** 21.5 ng/mL and 97.6 ng/mL

**Q.** And the concentration in plasma (po (20 mg/kg), 6 h, individual animals, listed as CK2-9, 20 mg/kg)?
**A.** 121 ng/mL and 22.9 ng/mL and 128 ng/mL
